Measured values as given in PubChem BioAssay (NCI).
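Test compounds were applied to cells in 96-well plates for 48 hours at 5 doses. GI50 is the concentration that inhibits growth by half. TGI: concentration producing complete growth inhibition.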

Assays:
Assay in all cases: growth of human tumour cells (NCI), 48 h
DLD-1 colon = system: DLD-1 colon
HOP-92 NSCLC = system: HOP-92 NSCLC
M19-MEL melanoma = system: M19-MEL melanoma
OVCAR-4 ovarian = system: OVCAR-4 ovarian
OVCAR-8 ovarian = system: OVCAR-8 ovarian
RXF 393 renal = system: RXF 393 renal
SNB-75 CNS = system: SNB-75 CNS
UACC-62 melanoma = system: UACC-62 melanoma
HS 578T breast = system: HS 578T breast
MDA-MB-435 = system: MDA-MB-435

Row | Structure (SMILES) | TGI (DLD-1 colon) | TGI (HOP-92 NSCLC) | TGI (M19-MEL melanoma) | TGI (OVCAR-4 ovarian) | TGI (OVCAR-8 ovarian) | TGI (RXF 393 renal) | TGI (SNB-75 CNS) | TGI (UACC-62 melanoma) | GI50 (HOP-92 NSCLC) | GI50 (HS 578T breast) | TGI (HS 578T breast) | GI50 (MDA-MB-435) | TGI (MDA-MB-435) | GI50 (OVCAR-4 ovarian) | GI50 (OVCAR-8 ovarian) | GI50 (RXF 393 renal) | GI50 (SNB-75 CNS) | GI50 (UACC-62 melanoma)
1 | CC#CC1C(OC(=O)c2ccccc2)CCCC1(CI)N=[N+]=[N-] (stereo unspecified) | > 100 µM | > 100 µM | > 100 µM | > 100 µM | > 100 µM | > 100 µM | > 100 µM | > 100 µM |  |  |  |  |  |  |  |  |  | 
2 | C=CC1C(OC2OC(CO)C(O)C(O)C2O)OC=C(C(=O)OC)C1CC=O (stereo unspecified) | > 100 µM |  | > 100 µM | > 100 µM |  | > 100 µM | > 100 µM | > 100 µM |  |  |  |  |  |  |  |  |  | 
3 | N#Cc1cc([N+](=O)[O-])ccc1NC(=O)/C(=N/N)C(C(=O)c1ccc(Cl)c(Cl)c1)C1OC(=O)c2ccccc21 (stereo unspecified) | > 100 µM | 60 µM | > 100 µM | > 100 µM | > 100 µM | > 100 µM |  | > 100 µM |  |  |  |  |  |  |  |  |  | 
4 | CC(=O)Nc1ccc(/C=C/C(=O)c2sc(-c3nc(C)c(C(=O)/C=C/c4ccc(NC(C)=O)cc4)s3)nc2C)cc1 | > 100 µM |  | > 100 µM | > 100 µM | > 100 µM | > 100 µM |  | > 100 µM |  |  |  |  |  |  |  |  |  | 
5 | COC(=O)C1=C(O)c2cc3c(cc2[C@H](c2cc(OC)c(OC)c(OC)c2)C1C(=O)OC)OCO3 (stereo partly specified) | > 100 µM | > 100 µM | > 100 µM | 83 µM | > 100 µM | 73.4 µM | 66 µM | 99.4 µM |  |  |  |  |  |  |  |  |  | 
6 | CCOC(=O)C1=C(Nc2cccc3ccccc23)OC/C1=N\NC(=O)c1ccccc1O | 81.5 µM | 46.1 µM | > 100 µM | > 59.1 µM | 67.8 µM | > 37.5 µM | 39.5 µM | 48.9 µM |  |  |  |  |  |  |  |  |  | 
7 | COC(=O)C1=C(C(=O)OC)SC(=C(N=Nc2ccccc2)c2ccccc2)S1 | > 100 µM | > 100 µM | > 100 µM | > 100 µM | > 100 µM |  | > 100 µM | > 100 µM |  |  |  |  |  |  |  |  |  | 
8 | O=c1[nH]c(-c2ccc(-c3nc4cc([N+](=O)[O-])ccc4c(=O)[nH]3)cc2)nc2cc([N+](=O)[O-])ccc12 | > 100 µM | > 100 µM | > 100 µM | > 100 µM | > 100 µM | > 100 µM | > 100 µM | > 100 µM |  |  |  |  |  |  |  |  |  | 
9 | O=C1NC2C=CN(Cc3ccccc3)C=C2C(=O)N2CCCC12 (stereo unspecified) | > 100 µM | > 100 µM | > 100 µM | > 100 µM | > 100 µM | > 100 µM | > 100 µM | > 100 µM |  |  |  |  |  |  |  |  |  | 
10 | CS(=O)(=O)Nc1ccc(N=Cc2c(O)[nH]c3ccccc23)cc1 |  | > 25 µM |  | > 25 µM | > 25 µM | > 25 µM | > 25 µM | > 25 µM | > 25 µM | > 25 µM | > 25 µM | > 25 µM | > 25 µM | > 25 µM | > 25 µM | > 25 µM | > 25 µM | > 25 µM
11 | CCC(=O)N(O)C(C)(C)C | > 100 µM | > 100 µM | > 100 µM | > 100 µM | > 100 µM | > 100 µM | > 100 µM | > 100 µM |  |  |  |  |  |  |  |  |  | 
12 | CN(C)CC1CCCCCC(CN(C)C)C1=O (stereo unspecified) |  | 8.11 µM |  | 21.7 µM | 8.54 µM | 3.35 µM | 27.5 µM | 22.9 µM | 2.69 µM | 21 µM | > 64.3 µM | 2.93 µM | 13.2 µM | 3.4 µM | 2.61 µM | 1.58 µM | 12.2 µM | 8.12 µM
